From ChEMBL document CHEMBL6092167, “Phosphorylation as an Effective Tool to Improve Stability and Reduce Toxicity of Antimicrobial Peptides” (J Med Chem, 2024)
≈ marks a conversion by molar mass, not a printed value. Calls of active or inactive are those of the source. The rule behind the calls is not given here. Non-standard residues stand in square brackets, D forms with d. Residues, ends and D or L forms follow the SMILES beside them. Bip = N[C@@H](Cc1ccc(-c2ccccc2)cc1)C(=O)O; pT = C[C@@H](OP(=O)(O)O)[C@H](N)C(=O)O

Assays:
Staphylococcus aureus [1] = test: Antibacterial activity against methicillin resistant Staphylococcus aureus ATCC 33591 incubated for 18 to 24 hrs by broth microdilution method; format: functional; details: time 18-24 hrs
Staphylococcus aureus [2] = test: Antibacterial activity against methicillin resistant Staphylococcus aureus 48 incubated for 18 to 24 hrs by broth microdilution method; format: functional; details: time 18-24 hrs
Staphylococcus aureus [3] = test: Antibacterial activity against Staphylococcus aureus 794 incubated for 18 to 24 hrs by broth microdilution method; format: functional; details: time 18-24 hrs
Pseudomonas aeruginosa [4] = test: Antibacterial activity against Pseudomonas aeruginosa 119 incubated for 18 to 24 hrs by broth microdilution method; format: functional; details: time 18-24 hrs
Staphylococcus aureus [5] = test: Antibacterial activity against Staphylococcus aureus ATCC 25923 incubated for 18 to 24 hrs by broth microdilution method; format: functional; details: time 18-24 hrs
Bacillus subtilis = test: Antibacterial activity against Bacillus subtilis ATCC 23857 incubated for 18 to 24 hrs by broth microdilution method; format: functional; details: time 18-24 hrs
Pseudomonas aeruginosa [6] = test: Antibacterial activity against Pseudomonas aeruginosa ATCC 27853 incubated for 18 to 24 hrs by broth microdilution method; format: functional; details: time 18-24 hrs
Klebsiella pneumoniae [7] = test: Antibacterial activity against Klebsiella pneumoniae ATCC 700603 incubated for 18 to 24 hrs by broth microdilution method; format: functional; details: time 18-24 hrs
Acinetobacter baumannii = test: Antibacterial activity against Acinetobacter baumannii ATCC 19606 incubated for 18 to 24 hrs by broth microdilution method; format: functional; details: time 18-24 hrs
Staphylococcus aureus [8] = test: Antibacterial activity against Staphylococcus aureus ATCC 25923 infected in BALB/c mouse systemic infection model assessed as reduction in bacterial load in liver at 1.09 mg/kg, ip pre-infected for 2 hrs followed by compound addition and measured after 8 hrs postinfection; format: functional, organism-based; details: time 6.0 hrs
Staphylococcus aureus [9] = test: Antibacterial activity against Staphylococcus aureus ATCC 25923 infected in BALB/c mouse systemic infection model assessed as reduction in bacterial load in spleen at 1.09 mg/kg, ip pre-infected for 2 hrs followed by compound addition and measured after 8 hrs postinfection; format: functional, organism-based; details: time 6.0 hrs
Staphylococcus aureus [10] = test: Antibacterial activity against Staphylococcus aureus ATCC 25923 infected in BALB/c mouse systemic infection model assessed as reduction in bacterial load in lung at 1.09 mg/kg, ip pre-infected for 2 hrs followed by compound addition and measured after 8 hrs postinfection; format: functional, organism-based; details: time 6.0 hrs
Staphylococcus aureus [11] = test: Antibacterial activity against Staphylococcus aureus ATCC 25923 infected in BALB/c mouse systemic infection model assessed as reduction in bacterial load in kidney at 1.09 mg/kg, ip pre-infected for 2 hrs followed by compound addition and measured after 8 hrs postinfection; format: functional, organism-based; details: time 6.0 hrs
Staphylococcus aureus [12] = test: Antibacterial activity against Staphylococcus aureus ATCC 25923 infected in BALB/c mouse systemic infection model assessed as reduction in inflammatory response in lung tissue at 1.09 mg/kg, ip pre-infected for 2 hrs followed by compound addition and measured after 8 hrs postinfection; format: functional, organism-based; details: time 6.0 hrs
Staphylococcus aureus [13] = test: Antibacterial activity against Staphylococcus aureus ATCC 25923 infected in BALB/c mouse systemic infection model assessed as improved alveoli dilation at 1.09 mg/kg, ip pre-infected for 2 hrs followed by compound addition and measured after 8 hrs postinfection; format: functional, organism-based; details: time 6.0 hrs
Staphylococcus aureus [14] = test: Antibacterial activity against Staphylococcus aureus ATCC 25923 infected in BALB/c mouse systemic infection model assessed as reduction in tissue hemorrhage at 1.09 mg/kg, ip pre-infected for 2 hrs followed by compound addition and measured after 8 hrs postinfection; format: functional, organism-based; details: time 6.0 hrs
Escherichia coli [15] = test: Antibacterial activity against Escherichia coli 780 incubated for 18 to 24 hrs by broth microdilution method; format: functional; details: time 18-24 hrs
Escherichia coli [16] = test: Antibacterial activity against Escherichia coli 850 incubated for 18 to 24 hrs by broth microdilution method; format: functional; details: time 18-24 hrs
Escherichia coli [17] = test: Antibacterial activity against Escherichia coli ATCC 25922 incubated for 18 to 24 hrs by broth microdilution method; format: functional; details: time 18-24 hrs
[18] = Hemolytic activity in mouse erythrocyte incubated for 1 hr by microplate reader assay; format: toxicity, cell-based
[19] = Cytotoxicity against HEK293T cells incubated for 1 hr by fluorescence based microplate reader assay; format: toxicity, cell-based, HEK-293T; details: human
Klebsiella pneumoniae [20] = test: Drug resistance development in Klebsiella pneumoniae ATCC 700603 assessed as fold increase in MIC measured after 7 passage; format: functional
Staphylococcus aureus [21] = test: Inhibition of biofilm formation in Staphylococcus aureus ATCC 25923 at 2 times MIC incubated for 24 hrs by crystal violet staining based assay; format: functional, organism-based
Staphylococcus aureus [22] = test: Antibiofilm activity against Staphylococcus aureus ATCC 25923 assessed as eradication of preformed biofilms at 4 times MIC incubated for 24 hrs by crystal violet staining based assay; format: functional, organism-based
Staphylococcus aureus [23] = test: Bactericidal activity against Staphylococcus aureus ATCC 25923 at 2 times MIC incubated for 24 hrs by time kill assay; format: functional

| Compound | MIC (Staphylococcus aureus [1]) | MIC (Staphylococcus aureus [2]) | MIC (Staphylococcus aureus [3]) | MIC (Pseudomonas aeruginosa [4]) | MIC (Staphylococcus aureus [5]) | MIC (Bacillus subtilis) | MIC (Pseudomonas aeruginosa [6]) | MIC (Klebsiella pneumoniae [7]) | MIC (Acinetobacter baumannii) | MIC (Escherichia coli [15]) | MIC (Escherichia coli [16]) | MIC (Escherichia coli [17]) | MHC [18] | CC50 at 1 h [19] | further results |
| --- | --- | --- | --- | --- | --- | --- | --- | --- | --- | --- | --- | --- | --- | --- | --- |
| CNC(C)[C@@H]1CC[C@@H](N)[C@@H](O[C@H]2[C@H](O)[C@@H](O[C@H]3OC[C@](C)(O)[C@H](NC)[C@H]3O)[C@H](N)C[C@@H]2N)O1.CN[C@@H]1[C@@H](O)[C@@H](O[C@@H]2[C@@H](O)[C@H](O[C@H]3O[C@H](C(C)N)CC[C@H]3N)[C@@H](N)C[C@H]2N)OC[C@]1(C)O.CN[C@@H]1[C@@H](O)[C@@H](O[C@@H]2[C@@H](O)[C@H](O[C@H]3O[C@H](CN)CC[C@H]3N)[C@@H](N)C[C@H]2N)OC[C@]1(C)O (stereo partly specified) | 32 µM | 64 µM | 64 µM | > 128 µM | < 1 µM | < 1 µM | < 1 µM | 8 µM | 8 µM |  |  |  |  |  | Activity (Staphylococcus aureus [8]): Active; Activity (Staphylococcus aureus [9]): Active; Activity (Staphylococcus aureus [10]): Active; Activity (Staphylococcus aureus [11]): Active; Activity (Staphylococcus aureus [12]): Active; Activity (Staphylococcus aureus [13]): inactive; Activity (Staphylococcus aureus [14]): Active |
| CC(C)C[C@H](NC(=O)[C@H](CC(C)C)NC(=O)[C@@H](NC(=O)[C@H](CCCCN)NC(=O)[C@H](CC(C)C)NC(=O)[C@H](CCCNC(=N)N)NC(=O)[C@H](CCCCN)NC(=O)[C@H](Cc1ccc(-c2ccccc2)cc1)NC(=O)[C@H](CC(C)C)NC(=O)CN)[C@@H](C)OP(=O)(O)O)C(N)=O (H-GL[Bip]KRLK[pT]LL-NH2) | 54 µM (≈ 72.6 µg/mL) | 32 µM (≈ 43 µg/mL) | 16 µM (≈ 21.5 µg/mL) | 32 µM (≈ 43 µg/mL) | 64 µM (≈ 86 µg/mL) | 16 µM (≈ 21.5 µg/mL) | 16 µM (≈ 21.5 µg/mL) | 64 µM (≈ 86 µg/mL) | 32 µM (≈ 43 µg/mL) | 16 µM (≈ 21.5 µg/mL) | 32 µM (≈ 43 µg/mL) | 32 µM (≈ 43 µg/mL) | 125.83 µM | 112 µM |  |
| NC[C@H]1O[C@H](O[C@H]2[C@H](O)[C@@H](O[C@H]3O[C@H](CO)[C@@H](O)[C@H](N)[C@H]3O)[C@H](N)C[C@@H]2N)[C@H](O)[C@@H](O)[C@@H]1O [KANAMYCIN] | > 128 µM | > 128 µM | 64 µM (≈ 31 µg/mL) | 64 µM (≈ 31 µg/mL) | < 1 µM | < 1 µM | > 128 µM | 32 µM (≈ 15.5 µg/mL) | 8 µM (≈ 3.88 µg/mL) | 32 µM (≈ 15.5 µg/mL) | > 128 µM | 8 µM (≈ 3.88 µg/mL) |  |  | fold change (FC) (Klebsiella pneumoniae [20]): 128 |
| CO[C@H]1/C=C/O[C@@]2(C)Oc3c(C)c(O)c4c(O)c(c(/C=N/N5CCN(C)CC5)c(O)c4c3C2=O)NC(=O)/C(C)=C\C=C\[C@H](C)[C@H](O)[C@@H](C)[C@@H](O)[C@@H](C)[C@H](OC(C)=O)[C@@H]1C [RIFAMPIN] |  |  |  |  | < 1 µM | < 1 µM | 32 µM (≈ 26.3 µg/mL) | 32 µM (≈ 26.3 µg/mL) | 1 µM (≈ 0.823 µg/mL) |  |  | 8 µM (≈ 6.58 µg/mL) |  |  | fold change (FC) (Klebsiella pneumoniae [20]): 128 |
| CN[C@H](CC(C)C)C(=O)N[C@H]1C(=O)N[C@@H](CC(N)=O)C(=O)N[C@H]2C(=O)N[C@H]3C(=O)N[C@H](C(=O)N[C@H](C(=O)O)c4cc(O)cc(O)c4-c4cc3ccc4O)[C@H](O)c3ccc(c(Cl)c3)Oc3cc2cc(c3O[C@@H]2O[C@H](CO)[C@@H](O)[C@H](O)[C@H]2O[C@H]2C[C@](C)(N)[C@H](O)[C@H](C)O2)Oc2ccc(cc2Cl)[C@H]1O [VANCOMYCIN] | < 1 µM | < 1 µM | 128 µM (≈ 186 µg/mL) | > 128 µM | < 1 µM | < 1 µM | > 128 µM | > 128 µM | 64 µM (≈ 92.8 µg/mL) | 128 µM (≈ 186 µg/mL) | 128 µM (≈ 186 µg/mL) | 128 µM (≈ 186 µg/mL) |  |  | inhibition (Staphylococcus aureus [21]): Active; Activity (Staphylococcus aureus [22]): Active; Showed Poor Efficacy; Activity (Staphylococcus aureus [23]): 100% |
| H-GLLKRWKTLL-NH2 | 128 µM | 128 µM | 32 µM | 32 µM | > 128 µM | 8 µM | 8 µM | 64 µM | > 128 µM | 32 µM | 32 µM | 64 µM | > 256 µM | > 128 µM |  |
| H-GLLKRWKYLL-NH2 | 32 µM | 32 µM | 16 µM | 16 µM | 64 µM | 4 µM | 8 µM | 64 µM | 64 µM | 8 µM | 16 µM | 16 µM | > 256 µM | > 128 µM |  |
| H-GLWKRLKTLL-NH2 | 8 µM | 8 µM | 8 µM | 16 µM | 16 µM | 4 µM | 4 µM | 8 µM | 32 µM | 8 µM | 8 µM | 8 µM | > 256 µM | > 128 µM |  |
| H-GLWKRLKYLL-NH2 | 8 µM | 8 µM | 8 µM | 16 µM | 8 µM | 4 µM | 8 µM | 8 µM | 8 µM | 8 µM | 8 µM | 8 µM | 182.72 µM | 115 µM |  |
